Laboratory results from ChEMBL document CHEMBL5724914, “Linking interpersonal differences in gut microbiota composition and drug biotransformation activity” (2024).

Legend:
[1] = (§1) The drug is tested on WLS-310 corresponding to human gut metagenome with ENA study accession number: PRJEB37062 and ENA sample accession number: ERS12561785 for biotransformation under anaerobic condition. The drug concentrations were measured over 9 timepoints collected between 0 and 24 hours of incubation by liquid-chromatography-coupled mass spectrometry (LC–MS); conditions: 2 µM
[2] = as §1, with “Z-001” for “WLS-310”, “mouse” for “human”, “ERS12561801” for “ERS12561785”; conditions: 2 µM
[3] = human gut metagenome, 24 h, 2 µM
[4] = human gut metagenome, 24 h, 2 µM; remark: listed apart in the source
[5] = human gut metagenome, 24 h, 2 µM; remark: listed apart in the source
[6] = human gut metagenome, 24 h, 2 µM; remark: listed apart in the source
[7] = as §1, with “Z-024” for “WLS-310”, “pig” for “human”, “ERS12561823” for “ERS12561785”; conditions: 2 µM
[8] = human gut metagenome, 24 h, 2 µM; remark: listed apart in the source
[9] = as §1, with “WLS-220” for “WLS-310”, “ERS12561769” for “ERS12561785”; conditions: 2 µM
[10] = as §1, with “Z-003” for “WLS-310”, “pig” for “human”, “ERS12561803” for “ERS12561785”; conditions: 2 µM
[11] = human gut metagenome, 24 h, 2 µM; remark: listed apart in the source
[12] = as §1, with “WLS-350” for “WLS-310”, “ERS12561789” for “ERS12561785”; conditions: 2 µM
[13] = human gut metagenome, 24 h, 2 µM; remark: listed apart in the source
[14] = human gut metagenome, 24 h, 2 µM; remark: listed apart in the source
[15] = as §1, with “Z-007” for “WLS-310”, “rat” for “human”, “ERS12561807” for “ERS12561785”; conditions: 2 µM
[16] = as §1, with “Z-025” for “WLS-310”, “rabbit” for “human”, “ERS12561824” for “ERS12561785”; conditions: 2 µM
[17] = as §1, with “Z-021” for “WLS-310”, “to” for “to human gut”, “ERS12561820” for “ERS12561785”; conditions: 2 µM
[18] = as §1, with “WLS-006” for “WLS-310”, “ERS12561741” for “ERS12561785”; conditions: 2 µM
[19] = human gut metagenome, 24 h, 2 µM; remark: listed apart in the source
[20] = as §1, with “Z-018” for “WLS-310”, “pig” for “human”, “ERS12561817” for “ERS12561785”; conditions: 2 µM
Further: call rule not given here.

Row | Compound | Bacterial Biotransformation [1] | Bacterial Biotransformation [2] | Bacterial Biotransformation [3] | Bacterial Biotransformation [4] | Bacterial Biotransformation [5] | Bacterial Biotransformation [6] | Bacterial Biotransformation [7] | Bacterial Biotransformation [8] | Bacterial Biotransformation [9] | Bacterial Biotransformation [10] | Bacterial Biotransformation [11] | Bacterial Biotransformation [12] | Bacterial Biotransformation [13] | Bacterial Biotransformation [14] | Bacterial Biotransformation [15] | Bacterial Biotransformation [16] | Bacterial Biotransformation [17] | Bacterial Biotransformation [18] | Bacterial Biotransformation [19] | Bacterial Biotransformation [20]
1 | CCCC(C)(COC(N)=O)COC(=O)NC(C)C (stereo not given) [CARISOPRODOL] | Compound NOT metabolized | Compound metabolized | Compound metabolized | Compound metabolized | Compound metabolized | Compound metabolized | Compound metabolized | Compound metabolized | Compound metabolized | Compound metabolized | Compound metabolized | Compound metabolized | Compound metabolized | Compound metabolized | Compound NOT metabolized | Compound metabolized | Compound NOT metabolized | Compound metabolized | Compound metabolized | Compound metabolized
2 | COc1ccccc1OCCNCC(O)COc1cccc2[nH]c3ccccc3c12 (stereo not given) [CARVEDILOL] | Compound metabolized | Compound NOT metabolized | Compound metabolized | Compound metabolized | Compound metabolized | Compound metabolized | Compound metabolized | Compound metabolized | Compound metabolized | Compound NOT metabolized | Compound NOT metabolized | Compound metabolized | Compound metabolized | Compound NOT metabolized | Compound NOT metabolized | Compound metabolized | Compound NOT metabolized | Compound metabolized | Compound NOT metabolized | Compound NOT metabolized
3 | CN1CCC[C@@H]1CCO[C@](C)(c1ccccc1)c1ccc(Cl)cc1.O=C(O)/C=C/C(=O)O [CLEMASTINE FUMARATE] | Compound metabolized | Compound NOT metabolized | Compound metabolized | Compound NOT metabolized | Compound NOT metabolized | Compound metabolized | Compound NOT metabolized | Compound metabolized | Compound NOT metabolized | Compound NOT metabolized | Compound NOT metabolized | Compound metabolized | Compound metabolized | Compound NOT metabolized | Compound NOT metabolized | Compound NOT metabolized | Compound NOT metabolized | Compound NOT metabolized | Compound NOT metabolized | Compound NOT metabolized
4 | CC(C)(C)NCC(O)c1cc(Cl)c(N)c(Cl)c1 (stereo not given) [CLENBUTEROL] | Compound NOT metabolized | Compound NOT metabolized | Compound NOT metabolized | Compound NOT metabolized | Compound NOT metabolized | Compound NOT metabolized | Compound NOT metabolized | Compound NOT metabolized | Compound NOT metabolized | Compound NOT metabolized | Compound NOT metabolized | Compound NOT metabolized | Compound NOT metabolized | Compound NOT metabolized | Compound NOT metabolized | Compound NOT metabolized | Compound NOT metabolized | Compound NOT metabolized | Compound NOT metabolized | Compound NOT metabolized
5 | C[N+]12CCC(CC1)C(OC(=O)C(O)(c1ccccc1)c1ccccc1)C2.[Br-] (stereo not given) [CLIDINIUM BROMIDE] | Compound NOT metabolized | Compound metabolized | Compound NOT metabolized | Compound metabolized | Compound metabolized | Compound NOT metabolized | Compound metabolized | Compound metabolized | Compound NOT metabolized | Compound metabolized | Compound NOT metabolized | Compound metabolized | Compound metabolized | Compound NOT metabolized | Compound NOT metabolized | Compound NOT metabolized | Compound NOT metabolized | Compound NOT metabolized | Compound NOT metabolized | Compound metabolized
6 | Clc1cccc(Cl)c1N=C1NCCN1 [CLONIDINE] | Compound metabolized | Compound metabolized | Compound metabolized | Compound NOT metabolized | Compound metabolized | Compound NOT metabolized | Compound NOT metabolized | Compound metabolized | Compound metabolized | Compound metabolized | Compound NOT metabolized | Compound NOT metabolized | Compound metabolized | Compound NOT metabolized | Compound NOT metabolized | Compound NOT metabolized | Compound NOT metabolized | Compound metabolized | Compound NOT metabolized | Compound metabolized
7 | COC(=O)[C@H](c1ccccc1Cl)N1CCc2sccc2C1.O=S(=O)(O)O [CLOPIDOGREL BISULFATE] | Compound metabolized | Compound metabolized | Compound metabolized | Compound metabolized | Compound metabolized | Compound metabolized | Compound metabolized | Compound metabolized | Compound metabolized | Compound metabolized | Compound metabolized | Compound metabolized | Compound metabolized | Compound metabolized | Compound NOT metabolized | Compound metabolized | Compound metabolized | Compound metabolized | Compound metabolized | Compound metabolized
8 | O=P1(N(CCCl)CCCl)NCCCO1 (stereo not given) [CYCLOPHOSPHAMIDE ANHYDROUS] | Compound metabolized | Compound NOT metabolized | Compound metabolized | Compound NOT metabolized | Compound metabolized | Compound NOT metabolized | Compound NOT metabolized | Compound metabolized | Compound metabolized | Compound NOT metabolized | Compound NOT metabolized | Compound NOT metabolized | Compound metabolized | Compound NOT metabolized | Compound NOT metabolized | Compound NOT metabolized | Compound NOT metabolized | Compound NOT metabolized | Compound NOT metabolized | Compound NOT metabolized
